Test results taken from publication PMC11126048, “Peptide Toxins from Antarctica: The Nemertean Predator and Scavenger Parborlasia corrugatus (McIntosh, 1876)” (Toxins, 2024).
Where two headings read alike, the source gives them in different places.

Tests used:
[1] = Bacterial membrane permeabilization assay (carboxyfluorescein leakage from liposomes); assay type: biochemical, Escherichia coli; conditions: E. coli polar lipid extract liposomes, 10 µM lipid, Tris 10 mM pH 7.4, 45 min, carboxyfluorescein fluorescence; EC50 fixed at 50% of maximum leakage (Triton X-100); mean of four experiments; read-out: EC50 liposome leakage
Description: Liposomes were manufactured and permeabilization-assayed as described previously. Briefly, lipid films of Escherichia coli polar lipid extract were deposited on round-bottom flask walls. The lipid films were re-suspended at 55 °C in an aqueous solution of 100 mM of 5(6)-carboxyfluorescein in Tris buffer. The suspensions were subjected to repeated extrusion through a 100 nm polycarbonate membrane in order to reduce multilamellar structures and polydispersity. Un-trapped carboxyfluorescein was removed by gel filtration. Membrane permeability was measured by monitoring carboxyfluorescein efflux from the liposomes to the external low-concentration environment, resulting in a loss of self-quenching and an increased fluorescence signal. The 96-well plates were prepared with a 2-fold serial dilution of the peptides in Tris buffer (10 mM, pH 7.4), and controls without peptides (background) and 0.16% Triton X-100 (maximum leakage). The plates were administered a liposome solution to a final lipid concentration of 10 μM in 200 µL. The effects of each peptide concentration on the liposomes were monitored for 45 min, at which point the initial leakage had largely subsided. The results shown represent the mean from four experiments (one for 3624 Da) with standard deviations and are expressed as the percent of total leakage generated with Triton X-100 and subtraction of the baseline value. […]

[2] = previous experiments; read-out: EC50 liposome leakage, previous experiments; cited from earlier work
Description: The ability of the Parborlasia peptides to permeabilize reconstituted E. coli phospholipid membranes was tested in a liposome-based assay. The peptides display the typical steep logarithmic AMP leakage kinetic (Figure 8). […] The 3624 Da peptide was tested in a single experiment series in this assay. The 26-residue long bee venom peptide melittin was used as a reference ...

Melittin
EC50 [1]: 300 nM
EC50 [2]: 400 nM
